Consider 13 molecules from PubChem BioAssay (NCI).

Several values for one entry are separate records, joined by “and”; a condition that tells them apart may be missing. Equal values may be shown once.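 Protocol summary: plate cells (96-well), add compound at 5 concentrations, incubate 48 h, interpolate endpoints linearly. Abbreviation: GI50, concentration required for 50% inhibition of growth. TGI: total growth inhibition.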

Among the test systems are M14 melanoma; OVCAR-5 ovarian; MALME-3M melanoma; HOP-62 NSCLC; SF-295 CNS; RPMI-8226 leukemia; 786-0 renal; SK-OV-3 ovarian; MOLT-4 leukemia; A498 renal.
What all share (assay): growth of human tumour cells (NCI), 48 h

Take `CCCCN(CCCC)CC(C(=O)Nc1ccc([N+](=O)[O-])cc1[N+](=O)[O-])/C(C)=N\NC(=O)C[N+](C)(C)C` (stereo not drawn): the TGI in the assay with M14 melanoma is more than 100 µM; in the assay on OVCAR-5 ovarian, more than 100 µM; in the assay with MALME-3M melanoma, more than 100 µM; in the assay with HOP-62 NSCLC, more than 100 µM; in the assay with SF-295 CNS it was more than 100 µM; in the assay on RPMI-8226 leukemia, 73.8 µM. Also, the TGI in the assay on 786-0 renal, with SK-OV-3 ovarian, in the assay with MOLT-4 leukemia and in the assay on A498 renal was more than 100 µM each time.
With `CCc1cccc(CC)c1NC(=O)CC1SC(N)=NC1=O` (stereo not drawn), the TGI in the assay with M14 melanoma, with OVCAR-5 ovarian, in the assay with MALME-3M melanoma, with HOP-62 NSCLC, in the assay with SF-295 CNS and in the assay on RPMI-8226 leukemia was more than 100 µM in each case. The TGI with 786-0 renal, in the assay on SK-OV-3 ovarian, in the assay on MOLT-4 leukemia and in the assay with A498 renal was more than 100 µM each time.
In the case of `NC(=O)CCc1ccccc1Oc1nccc(-c2c(-c3ccc(F)cc3)ncn2C2CCNCC2)n1`, the GI50 with M14 melanoma, with OVCAR-5 ovarian, with MALME-3M melanoma, in the assay with HOP-62 NSCLC, with SF-295 CNS and with RPMI-8226 leukemia was more than 25 µM in each case. The GI50 in the assay on 786-0 renal, with SK-OV-3 ovarian, in the assay with MOLT-4 leukemia and in the assay with A498 renal was more than 25 µM each time. In addition, the TGI with M14 melanoma, in the assay with OVCAR-5 ovarian, in the assay with MALME-3M melanoma, in the assay on HOP-62 NSCLC, in the assay with SF-295 CNS and in the assay with RPMI-8226 leukemia was more than 25 µM each time. Moreover, the TGI with 786-0 renal, with SK-OV-3 ovarian, in the assay on MOLT-4 leukemia and in the assay with A498 renal was more than 25 µM each time.
Regarding `O=c1[nH]c2ccccc2n2cc3ccccc3c12`, the GI50 with M14 melanoma is 6.39 µM; in the assay on OVCAR-5 ovarian it was 10.4 µM; in the assay with MALME-3M melanoma it was 25.1 µM; with HOP-62 NSCLC, 4.42 µM; in the assay with SF-295 CNS, 17.9 µM; in the assay with RPMI-8226 leukemia it was 3.7 µM. Besides, the GI50 in the assay on 786-0 renal is 4.23 µM; in the assay with SK-OV-3 ovarian, 12.4 µM; with MOLT-4 leukemia, 3.62 µM; in the assay with A498 renal, 11.1 µM. Besides, the TGI worked out at 22.9 µM with M14 melanoma; 35.5 µM with OVCAR-5 ovarian; 46.5 µM in the assay with MALME-3M melanoma; 17.9 µM in the assay with HOP-62 NSCLC; 35.8 µM with SF-295 CNS; 22.6 µM in the assay with RPMI-8226 leukemia. Besides, the TGI with 786-0 renal is 18.1 µM; in the assay on SK-OV-3 ovarian, 35.8 µM; with MOLT-4 leukemia it was 8.77 µM; with A498 renal, 26.7 µM.
Take `O=C(/C=C/c1cccc(S(=O)(=O)Nc2ccccc2)c1)NO`: the GI50 is 0.451 µM and 0.441 µM in the assay with M14 melanoma; 0.428 µM and 0.146 µM with OVCAR-5 ovarian; 0.251 µM and 0.0447 µM in the assay on MALME-3M melanoma; 0.529 µM and 0.325 µM with HOP-62 NSCLC; 0.579 µM and 0.603 µM in the assay on SF-295 CNS; 0.248 µM in the assay on RPMI-8226 leukemia. Moreover, the GI50 in the assay with 786-0 renal is 2.17 µM and 0.934 µM; in the assay on SK-OV-3 ovarian, 0.457 µM and 0.486 µM; in the assay with A498 renal it was 0.273 µM and 0.305 µM. The TGI with M14 melanoma was 12.9 µM and 12.5 µM; in the assay with OVCAR-5 ovarian, 13.2 µM and > 16.9 µM; in the assay on MALME-3M melanoma, 13.8 µM and 3.12 µM; in the assay with HOP-62 NSCLC, 13.1 µM and 5.34 µM; in the assay on SF-295 CNS, 3.12 µM and 3.97 µM; with 786-0 renal, 12.6 µM and 11.2 µM. The TGI in the assay on SK-OV-3 ovarian is 6.64 µM and > 29.4 µM; in the assay with MOLT-4 leukemia, more than 29.9 µM; in the assay on A498 renal, 1.34 µM and 1.12 µM.
Take `O=c1nc(N2CCCC2)nc(N2CCCC2)s1`: the TGI in the assay on M14 melanoma, in the assay with OVCAR-5 ovarian, in the assay on MALME-3M melanoma, in the assay on HOP-62 NSCLC, in the assay on SF-295 CNS and in the assay with RPMI-8226 leukemia was more than 100 µM in each case. Moreover, the TGI with 786-0 renal, in the assay with SK-OV-3 ovarian, in the assay with MOLT-4 leukemia and in the assay on A498 renal was more than 100 µM each time.
Regarding `O=[N+]([O-])/C=C/c1cc2ccc3ccccc3c2[nH]1`, the TGI in the assay on M14 melanoma stood at 3.33 µM; in the assay with OVCAR-5 ovarian, 4.55 µM; in the assay with MALME-3M melanoma it was 3.31 µM; in the assay with HOP-62 NSCLC, 4.39 µM; with SF-295 CNS, 5.86 µM; in the assay on RPMI-8226 leukemia it was 0.708 µM. Further, the TGI with 786-0 renal was 3.07 µM; with SK-OV-3 ovarian, 17.2 µM; with MOLT-4 leukemia, more than 100 µM; in the assay on A498 renal, 3.16 µM.
Take `Cc1cc(=O)oc2cc(OC(=O)Nc3ccccc3)ccc12`: the TGI in the assay with M14 melanoma was more than 100 µM; in the assay with OVCAR-5 ovarian it was more than 100 µM; in the assay on MALME-3M melanoma, more than 100 µM; in the assay with HOP-62 NSCLC, more than 100 µM; in the assay on SF-295 CNS, more than 100 µM; with RPMI-8226 leukemia it was 62.4 µM. The TGI with 786-0 renal, in the assay with SK-OV-3 ovarian, in the assay on MOLT-4 leukemia and in the assay with A498 renal was more than 100 µM each time.
Consider `O=Cc1ccc(-c2ccc(-c3ccc(C=O)o3)[se]2)o1`, for which the GI50 was more than 100 µM in the assay on M14 melanoma; more than 85.2 µM with OVCAR-5 ovarian; more than 100 µM in the assay on MALME-3M melanoma; 57.5 µM in the assay with HOP-62 NSCLC; more than 46.2 µM with SF-295 CNS; more than 100 µM in the assay with RPMI-8226 leukemia. Also, the GI50 is 53.2 µM in the assay on 786-0 renal, more than 85.8 µM in the assay on SK-OV-3 ovarian, more than 100 µM in the assay with MOLT-4 leukemia and 0.302 µM in the assay with A498 renal. The TGI is more than 100 µM in the assay with M14 melanoma; more than 100 µM in the assay with OVCAR-5 ovarian; more than 100 µM in the assay on MALME-3M melanoma; more than 100 µM with HOP-62 NSCLC; more than 65.6 µM in the assay on SF-295 CNS; more than 100 µM in the assay on RPMI-8226 leukemia. Also, the TGI with 786-0 renal was more than 100 µM; in the assay on SK-OV-3 ovarian it was more than 100 µM; with MOLT-4 leukemia it was more than 100 µM; in the assay with A498 renal, 10.5 µM.
For the molecule `NC(CO)c1ccc(OCc2ccccc2)cc1` (stereo not drawn), the TGI in the assay with M14 melanoma, in the assay on OVCAR-5 ovarian, in the assay on MALME-3M melanoma, with HOP-62 NSCLC, in the assay with SF-295 CNS and in the assay with RPMI-8226 leukemia was more than 100 µM each time. The TGI in the assay on 786-0 renal, with SK-OV-3 ovarian, in the assay on MOLT-4 leukemia and in the assay on A498 renal was more than 100 µM in each case.
`CN(C)c1ccc(/C=c2\sc3nnc(-c4cccnc4)n3c2=O)cc1`: the TGI with M14 melanoma, in the assay on OVCAR-5 ovarian, with MALME-3M melanoma, with HOP-62 NSCLC, in the assay on SF-295 CNS and in the assay with RPMI-8226 leukemia was more than 100 µM in each case. In addition, the TGI in the assay on 786-0 renal, with SK-OV-3 ovarian, in the assay with MOLT-4 leukemia and in the assay on A498 renal was more than 100 µM each time.
`CS(=N)(=O)CCC(N)P(=O)(O)O` (stereo not drawn): the TGI with M14 melanoma, with OVCAR-5 ovarian, with MALME-3M melanoma, in the assay with HOP-62 NSCLC, in the assay on SF-295 CNS and with RPMI-8226 leukemia was more than 100 µM in each case. The TGI with 786-0 renal, in the assay with SK-OV-3 ovarian, in the assay on MOLT-4 leukemia and with A498 renal was more than 100 µM in each case.
With `Cc1cc(C(O)(c2ccc(Nc3ccccc3)cc2)c2ccc(Nc3ccc(S(=O)(=O)O)cc3)cc2)ccc1N` (stereo not drawn), the GI50 was 1.2 µM in the assay on M14 melanoma; 1.4 µM with OVCAR-5 ovarian; 1.58 µM in the assay on MALME-3M melanoma; 2.27 µM with HOP-62 NSCLC; 1.69 µM in the assay with SF-295 CNS; 0.571 µM with RPMI-8226 leukemia. The GI50 in the assay with 786-0 renal is 1.02 µM; with SK-OV-3 ovarian, 2.53 µM; with MOLT-4 leukemia, 0.445 µM; with A498 renal it was 1.58 µM. Besides, the TGI in the assay with M14 melanoma is 2.98 µM; in the assay on OVCAR-5 ovarian, 3 µM; with MALME-3M melanoma, 3.11 µM; in the assay with HOP-62 NSCLC, 4.65 µM; with SF-295 CNS, 3.25 µM; with RPMI-8226 leukemia, 2.99 µM. Also, the TGI in the assay with 786-0 renal was 2.27 µM; in the assay with SK-OV-3 ovarian, 5.92 µM; in the assay with MOLT-4 leukemia it was more than 100 µM; with A498 renal it was 3.51 µM.
